Common to all, as to format: in vivo
For experiment [1], the system named is mice. As to the kind of experiment: Pedestal test (tranquilizing effect; mice staying on the pedestal for more than 1 minute). The following applies: Mus musculus, ip, 1 min, intraperitoneal injection, stay on the pedestal for more than 1 minute, read-out: ED50, P (pedestal test). As for the experimental part:
(§1) The free bases and acid addition salts of the novel compounds of Formula I are useful as central nervous system (CNS) depressants when administered to humans and animals.
(§2) Tranquilizing effects of compounds of this invention are shown by the following tests in mice:
Pedestal test: The untreated mouse leaves a standard pedestal in less than a minute to climb back to the floor of the standard mouse box. Tranquilized mice will stay on the pedestal for more than 1 minute.

The subject of experiment [2] is mice. The experiment can be described thus: Chimney test (tranquilizing effect; ability of mice to back up and out of a vertical glass cylinder within 30 seconds). To be noted: Mus musculus, ip, intraperitoneal injection, 50 percent of the mice failed within 30 seconds, read-out: ED50, Ch (chimney test).
Source text: as §1, §2
Chimney test: [Med. Exp. 4, 145 (1961)]: The test determines the ability of mice to back up and out of a verticle glass cylinder within 30 seconds. At the effective dosage, 50 percent of the mice failed doing it.

Experiment [3] deals with mice. The experiment can be described thus: Dish test (tranquilizing effect; mice remaining in Petri dish for more than 3 minutes). To be noted: Mus musculus, ip, 0.05 h, intraperitoneal injection, 50 percent of the mice remain in the dish more than 3 minutes, read-out: ED50, D (dish test). As for the experimental part:
as §1, §2
Dish test: Mice in Petri dishes (10 cm. diameter, 5 cm. high, partially embedded in wood shavings), climb out in a very short time, when not treated. Mice remaining in the dish for more than 3 minutes indicates tranquilization. ED50 equals the dose of test compound at which 50 percent of the mice remain in the dish.

Experiment [4] relates to mice. As to the kind of experiment: Nicotine antagonism test (nicotine salicylate 2 mg./kg. overstimulation, convulsions, tonic extensor fits, death). The following applies: Mus musculus, ip, intraperitoneal injection 30 minutes before nicotine salicylate 2 mg./kg., (3) = death, read-out: ED50, Ni (nicotine antagonism (3) test). The protocol: as §2
Nicotine antagonism test: Mice in a group of 6 are injected with the test compound. Thirty minutes later the mice including control (untreated) mice are injected with nicotine salicylate (2 mg./kg.). The control mice show overstimulation, i.e., (1) running convulsions followed by (2) tonic extensor fits; followed by (3) death.
Ni = nicotine antagonism (3) test

Another experiment deals with rats. The experiment can be described thus: Hypotensive activity (manner of Weeks and Jones, Proc. Soc. Exp. Biol. and Med. 104, 646 (1960)). To be noted: Rattus norvegicus; oral administration to rats; read-out: MED100 (minimal effective dose), hypotensive. An excerpt: The free bases and pharmacologically acceptable acid addition salts of the compounds of Formula I (a, b and c) are also useful in lowering blood pressure when administered to humans and animals. This activity makes them useful in the treatment of essential hypertension. […] Exp. Biol. and Med. 104, 646 (1960). The following compounds typical of this invention have (by oral administration to rats) MED100 (minimal effective dose) as shown in the table below.

Consider `Cl.O=C(CCCNC1CCC2(CCCc3ccccc32)CC1)c1ccc(F)cc1` (centres unmarked) [4'-Fluoro-4-[3',4'-dihydrospiro[cyclohexane-1,1'(2'H)-naphthalen]-4-ylamino]butyrophenone hydrochloride], for which the ED50 (commonly the dose at which the effect has come halfway, by size or by number of responders) in the experiment with mice [1] is 16 mg/kg; with mice [2] it was 25 mg/kg; in the experiment with mice [3], 10 mg/kg; in the experiment with mice [4], 5 mg/kg.
For `Cl.O=C(CCCNC1CCC2(CC1)Cc1ccccc1C2O)c1ccc(F)cc1` (centres unmarked) [4'-Fluoro-4-[[1'-hydroxyspiro[cyclohexane-1,2'-indan]-4-yl]amino]butyrophenone hydrochloride], in the experiment on rats, the minimal effective dose (usually the lowest level tested that produced the effect sought) worked out at 50 mg/kg.
In the case of `Cl.O=C(CCCNC1CCC2(CCc3ccccc3C2)CC1)c1ccc(F)cc1` (centres unmarked) [4'-Fluoro-4-[[3',4'-dihydrospiro[cyclohexane-1,2'(1'H)-naphthalen]-4-yl]amino]butyrophenone hydrochloride], the ED50 with mice [1] amounted to 12.5 mg/kg; in the experiment on mice [2], 9.9 mg/kg; in the experiment with mice [3], 9.9 mg/kg; in the experiment with mice [4] it was 7 mg/kg.
As to `Cl.O=C(CCCNC1CCC2(CC1)Cc1ccccc1C2)c1ccc(F)cc1` [4'-Fluoro-4-[[spiro[cyclohexane-1,2'-indan]-4-yl]amino]butyrophenone hydrochloride], in the experiment on rats, the minimal effective dose is 50 mg/kg.
`CN(CCCC(=O)c1ccc(F)cc1)C1CCC2(CC1)Cc1ccccc1C2.Cl` [4'-Fluoro-4-[methyl[spiro[cyclohexane-1,2'-indan]-4-yl]amino]butyrophenone hydrochloride]: the ED50 stood at 9 mg/kg in the experiment with mice [1], 16 mg/kg in the experiment with mice [2], 3.6 mg/kg in the experiment with mice [3] and 4 mg/kg in the experiment on mice [4].

(Values after patent publication US3932425A, “Benzospiran derivatives” (The Upjohn Company, priority 1974, dated 1976).)
